Experimental data from patent US20100329996A1, “Novel Combination of Therapeutic Agents” (Glaxo Group Limited, priority 2007, published 2010).

Tests used:
[1] = stability of formulation with magnesium stearate; type: physicochemical; conditions: addition of magnesium stearate in the formulation, under conditions tested
[2] = system: M1 and M3 receptors over the M2 receptors; assay: muscarinic receptor subtype selectivity and antagonist character; type: binding
[3] = system: muscarinic acetylcholine (Ach) receptor; assay: off-rate at the muscarinic acetylcholine receptor; type: binding
Source text: This is known to be predictive of a long duration of action. Therefore, while a twice daily dosing at 10-100 mcg/dose may be used, if the dose is increased, such as to 100-200 mcg/dose, once daily dosing may be a suitable alternative.

[4] = system: healthy male ipratropium-responsive subjects; assay: clinical trial, single escalating inhaled doses, airway conductance (sGaw); type: in vivo, human; conditions: for increase in airway conductance (sGaw) versus placebo, significance: all doses (bromide compound 20-350 mcg via Diskus; tiotropium 18 mcg), healthy subjects
Source text: In another clinical trial using a binary mixture of the bromide compound and lactose monohydrate, the safety, tolerability, pharmacodynamics and pharmacokinetics of single escalating doses of the bromide compound (20, 60, 100, 250 and 350 mcg via the Diskus), and tiotropium (18 mcg) in 20 healthy male ipratropium-responsive subjects were compared.

[5] = system: male and female ipratropium-responsive COPD subjects; assay: clinical study, single inhaled doses, FEV1; type: in vivo, human
Method: A third clinical study assessed the safety, tolerability, pharmacodynamics and pharmacokinetics of single inhaled doses of the bromide compound (20, 50 and 100 mcg via Diskus), and tiotropium (18 mcg) in 31 male and female ipratropium-responsive COPD subjects.
Mean FEV1 values peaked at 2 hours and decreased consistently to 24 hours for each dose.

[6] = human clinical trial, bronchodilation and onset of action; type: in vivo
[7] = system: isolated human bronchial strips; assay: inhibition of carbachol-induced contraction of isolated human bronchial strips; type: cell-based; conditions: for offset half time: 10 nM; for onset half time to 50% inhibition of carbachol-induced contraction: single concentration of 10 nM

stabilization of the product on stability [1]	reversibility of antagonism [2]	selectivity for the M1 and M3 receptors over the M2 receptors [2] [fold]	off-rate at the muscarinic acetylcholine (Ach) receptor [3]	SMILES	muscarinic receptor antagonist character [2]	increase in sGaw compared with placebo ([4]; 20 mcg dose, after 24 hours) [%]	increase in airway conductance (sGaw) versus placebo, significance [4]	FEV1 adjusted mean difference versus placebo ([5]; 20 mcg, 12 hours) [mL]	FEV1 adjusted mean difference versus placebo ([5]; 20 mcg, 24 hours) [mL]	FEV1 adjusted mean difference versus placebo ([5]; 50 mcg, 12 hours) [mL]	FEV1 adjusted mean difference versus placebo ([5]; 50 mcg, 24 hours) [mL]	FEV1 adjusted mean difference versus placebo ([5]; 100 mcg, 12 hours) [mL]	FEV1 adjusted mean difference versus placebo ([5]; 100 mcg, 24 hours)	Mean FEV1 versus placebo, significance ([5]; all doses (20, 50, 100 mcg), each time point over 24 hours, COPD subjects)	time of peak mean FEV1 ([5]; each dose (20, 50, 100 mcg)) [h]	onset of action in human clinical trial ([6]; compared with tiotropium)	bronchodilator efficacy in human clinical trial ([6]; human, in vivo)	offset half time [7] [min]	onset half time to 50% inhibition of carbachol-induced contraction [7] [min]
some improvement in stabilization				C[N+]1(C)C2CCC1CC(CC(C#N)(c1ccccc1)c1ccccc1)C2 (stereo not drawn) [Compound (I), (Endo)-3-(2-cyano-2,2-diphenyl-ethyl)-8,8-dimethyl-8-azonia-bicyclo[3.2.1]octane]															
	partially reversible antagonist	10	slow	C[N+]1(C)[C@@H]2CC[C@H]1C[C@@H](CC(C#N)(c1ccccc1)c1ccccc1)C2.[Br-] [bromide compound, (Endo)-3-(2-cyano-2,2-diphenyl-ethyl)-8,8-dimethyl-8-azonia-bicyclo[3.2.1]octane bromide]	high-affinity, pan-active, competitive and reversible	16	statistically significantly greater increases	241	135	288	136	305	above 200 mL	statistically significantly higher than placebo	2	faster onset of action than tiotropium	effective long-acting anti-muscarinic bronchodilator	195	25
				C[N+]1(C)[C@@H]2C[C@@H](OC(=O)C(O)(c3cccs3)c3cccs3)C[C@H]1[C@@H]1O[C@@H]12 [tiotropium, tiotropium bromide, reference compound]			statistically significantly greater increases											314	10
